US20120164104A1, “Composition and Methods of Treating Viral Infections and Viral Induced Tumors” (Chimerix, Inc., priority 2009, published 2012)
“Also recorded” adds a separate entry of the source. Where two headings read alike, the source gives them in different places.

Key:
BKV(Dunlop) = test: Extracellular BKV load in supernatants of BKV-infected RPTECs (qPCR); format: cell-based
Method: For FIG. 1(a), RPTEC supernatants were harvested 72 h p.i. i.e. 70 h post start of treatment with indicated CMX001 concentrations. BKV load was measured by […] and input virus subtracted. DNA load in untreated cells (1.05E+09 Geq/ml) was set as 100%.
FIG. 5 illustrates the influence of CMX001 0.31 μM on BKV extracellular BKV load. […] Supernatants from CMX001-treated and untreated BKV-infected RPTECs were harvested at indicated timepoints after infection and BKV load measured by qPCR. Data are presented as BKV load in Geq/ml.
For FIG. […] Supernatants were harvested 72 h p.i. and extracellular BKV load measured by qPCR. Data are presented in percent of untreated cells set at 100%.
Primary human renal proximal tubule epithelial cells (RPTECs), BKV(Dunlop) and all methods as previously described by Bernhoff et al (See Bernhoff et al., Cidofovir inhibits polyomavirus BK replication in human renal tubular cells downstream of viral early gene expression, Am J Transplant 8, 1413-1422 (2008).) Only one exception, quantitative PCR (qPCR) to quantify intracellular or extracellular BKV DNA load was performed with a different primer/probe set also targeting the LTag gene (See Hirsch, et al., J. Prospective study of polyomavirus type BK replication and nephropathy in renal-transplant recipients, N Engl J. Med., 347, 488-496 (2002)). Before each experiment, CMX001 was freshly dissolved to 1 mg/ml in methanol/water/ammonium hydroxide (50/50/2). It was further diluted in RPTEC growth medium.
To investigate the effect of CMX001 on BKV progeny, increasing concentrations of CMX001 were added 2 h p.i. and supernatants harvested at 72 h p.i. It was observed that CMX001 reduced the extracellular BKV load in a concentration dependent manner (See FIG. 1 a). […] With CMX001 0.31 uM an approximately 60% decrease in BKV agnoprotein expressing cells was seen. The number of cells expressing LTag was less reduced but the signal intensity was lower than in untreated cells. […] The conclusion is that CMX001 reduced the expression of early and late BKV proteins and the production of extracellular progeny but also seemed to affect the proliferation rate of RPTECs at higher concentrations.

Caki-2 = test: Cell proliferation assay (MTS or SRB), Caki-2; format: cell-based; conditions: Homo sapiens, 72 h; Caki-2, Kidney, 3 days; read-out: IC50 (cell growth inhibition)
Method: (§1) In vitro cell proliferation assays were performed using a 96-well plate based MTSassay (CellTiter 96° AqueousOne Solution Cell Proliferation Assay, Promega) or SRB (Sulforhodamine-B) assay (1-3). Briefly, cells were plated in 100 μl medium on day 0 in 96-well microtiter plates (Falcon #3072). On day 1, 10 μl of serial dilutions of each compound (Nine 1:2 dilutions with a starting concentration of 100 μM; in some cases, a starting concentration of 400 μM (CMX001 or Cidofovir) or 1 μM (some standard agents)) were added in triplicates to the plates. For standard agents using DMSO as solvent, serial dilutions of DMSO with a starting concentration of 0.5% were also included as a vehicle control.
(§2) After incubation for 3 days at 37° C. in a humidified incubator, viable cells were measured either by MTS or SRB assay. For MTS assay, 20 μl of a 20:1 mixture of (3-(4,5-dimethylthiazol-2-yl)-5-(3-carboxymethoxyphenyl)-2-(4-sulfophenyl)-2H-tetrazolium, inner salt (MTS, 2 mg/ml) and an electron coupling reagent, phenazine methosulfate (PMS, 0.92 mg/ml in DPBS), was added to each well and incubated for 3 hours at 37° C. Absorbance was measured using a BioTek Synergy™ HT Multiple Detection microplate reader at 490 nm. For SRB assay, cells were fixed in situ with 50 μL of cold trichloroacetic acid (TCA, final concentration at 10% w/v) for 60 minutes. Cells were then washed 5 times with H2O and air-dried.
(§3) Next, cells were stained with 20 μL of 0.2% SRB in 1% acetic acid and incubated at room temperature for 30 minutes and unbound SRB was removed by washing 5 times with 1% acetic acid and air-dried. Finally, bound SRB stain was solubilized in 50 μL of 50 μM Tris buffer before taking an optical density measurement at 570 nm using the BioTek microplate reader. The growth inhibition data were expressed as the percentage of cell survival calculated from the background corrected absorbance. The surviving fraction of cells was determined by dividing the mean absorbance values of the test agent-treated samples by the mean absorbance values of untreated control. […]

SCaBER = test: Cell proliferation assay (MTS or SRB), SCaBER; format: cell-based; conditions: Homo sapiens, 72 h, Bladder, 3 days, read-out: IC50 (cell growth inhibition)
Method: as §1, §2, §3

PC-3 = test: Cell proliferation assay (MTS or SRB), PC-3; format: cell-based; conditions: Homo sapiens, 72 h; PC-3, Prostate, 3 days; read-out: IC50 (cell growth inhibition)
Method: as §1, §2, §3

MDA-231 = test: Cell proliferation assay (MTS or SRB), MDA-231; format: cell-based; conditions: Homo sapiens, MDA-MB-231, 72 h; MDA-231, Breast, 3 days; read-out: IC50 (cell growth inhibition)
Method: as §1, §2, §3

HT-29 = test: Cell proliferation assay (MTS or SRB), HT-29; format: cell-based, human; conditions: Homo sapiens, 72 h; HT-29, Colon, 3 days; read-out: IC50 (cell growth inhibition)
Method: as §1, §2, §3

A2058 = test: Cell proliferation assay (MTS or SRB), A2058; format: cell-based; conditions: Homo sapiens, 72 h; A2058, Skin (melanoma), 3 days; read-out: IC50 (cell growth inhibition)
Method: as §1, §2
Next, cells were stained with 20 μL of 0.2% SRB in 1% acetic acid and incubated at room temperature for 30 minutes and unbound SRB was removed by washing 5 times with 1% acetic acid and air-dried. Finally, bound SRB stain was solubilized in 50 μL of 50 μM Tris buffer before taking an optical density measurement at 570 nm using the BioTek microplate reader. The growth inhibition data were expressed as the percentage of cell survival calculated from the background corrected absorbance. The surviving fraction of cells was determined by dividing the mean absorbance values of the test agent-treated samples by the mean absorbance values of untreated control.
Raw data were acquired using a BioTek Synergy™ HT Multiple Detection microplate reader and imported into Microsoft Excel for analysis. The average signal of each treatment was calculated from the triplicates after subtracting the blank signals. The percentage survival values were calculated using the following formula: % survival=(average signal of the drug treatment/average signal of untreated controls)×100. The data were finally imported into the Prism 4 software (GraphPad Software, San Diego, Calif.) to generate the dose-activity curves using non-linear regression curve fit and to calculate the IC50 values.

SK-HEP-1 = test: Cell proliferation assay (MTS or SRB), SK-HEP-1; format: cell-based; conditions: Homo sapiens, SK-HEP1, 72 h; SK-HEP-1, Liver, 3 days; read-out: IC50 (cell growth inhibition)
Method: as §1, §2, §3

SMILES | IC90 (BKV(Dunlop); Betapolyomavirus hominis, Epithelial cell, primary human renal proximal tubule epithelial cells (conclusion), read-out: IC90 against BK virus replication) | extracellular BKV load (timecourse) (BKV(Dunlop); CMX001 0.31 μM, 48 h p.i.) | BKV load in supernatants from treated cells (BKV(Dunlop); CMX001 0.31 μM, 72 h p.i.) | BKV load in supernatants lower than in untreated cells (timecourse) (BKV(Dunlop); CMX001 0.31 μM, 72 h p.i.) | IC90 (BKV(Dunlop); RPTEC, RPTECs, added 2 h p.i., harvested 72 h p.i., viral input subtracted, read-out: inhibitory concentration IC90 (extracellular BKV load)) | effect of pre-treatment on BKV load 72 h p.i. (BKV(Dunlop); RPTECs treated for 4 hours, ending 20 hours before infection) | reduction of viral load by pre-treatment (BKV(Dunlop); RPTECs treated for 23 hours until one hour before infection, 72 h p.i.) | IC50 (Caki-2) | IC50 (SCaBER) | IC50 (PC-3) | IC50 (MDA-231) | IC50 (HT-29) | IC50 (A2058) | IC50 (SK-HEP-1)
CCCCCCCCCCCCCCCCOCCCOP(=O)(O)CO[C@H](CO)Cn1ccc(N)nc1=O [CMX001] | 0.31 µM | only input virus could be detected; also recorded: only input was detectable | 1.13×10^8 Geq/ml | 84% | 0.31 µM | hardly any effect; also recorded: did not inhibit BKV replication | about 50% | 60 µM | 82.1 µM | 6.6 µM | 11.2 µM | 48.6 µM | 21.7 µM | 7.4 µM
Nc1ccn(C[C@@H](CO)OCP(=O)(O)O)c(=O)n1 [cidofovir] | – | – | – | – | – | – | – | > 100 µM | > 100 µM | > 100 µM | > 100 µM | > 100 µM | > 100 µM | > 100 µM
